Values quoted from earlier work as cited in paper PMC4894568 (PLoS ONE, 2016).

Columns and labels:
Influenza A virus [1] = settings: mouse, in vivo
Influenza A virus [2] = test system: Influenza A virus

Substance: LL-37
- infection with Influenza A virus in an infection model (Influenza A virus [1]): prevented or inhibited the infection
- infectivity of Influenza A virus (Influenza A virus [2]): influenced the infectivity
